For assay [1], the target named is T1, Slo3 (potassium channel subfamily U member 1, KCNU1) (Homo sapiens, UniProt A8MYU2).
T1 sequence (A8MYU2 1-1149): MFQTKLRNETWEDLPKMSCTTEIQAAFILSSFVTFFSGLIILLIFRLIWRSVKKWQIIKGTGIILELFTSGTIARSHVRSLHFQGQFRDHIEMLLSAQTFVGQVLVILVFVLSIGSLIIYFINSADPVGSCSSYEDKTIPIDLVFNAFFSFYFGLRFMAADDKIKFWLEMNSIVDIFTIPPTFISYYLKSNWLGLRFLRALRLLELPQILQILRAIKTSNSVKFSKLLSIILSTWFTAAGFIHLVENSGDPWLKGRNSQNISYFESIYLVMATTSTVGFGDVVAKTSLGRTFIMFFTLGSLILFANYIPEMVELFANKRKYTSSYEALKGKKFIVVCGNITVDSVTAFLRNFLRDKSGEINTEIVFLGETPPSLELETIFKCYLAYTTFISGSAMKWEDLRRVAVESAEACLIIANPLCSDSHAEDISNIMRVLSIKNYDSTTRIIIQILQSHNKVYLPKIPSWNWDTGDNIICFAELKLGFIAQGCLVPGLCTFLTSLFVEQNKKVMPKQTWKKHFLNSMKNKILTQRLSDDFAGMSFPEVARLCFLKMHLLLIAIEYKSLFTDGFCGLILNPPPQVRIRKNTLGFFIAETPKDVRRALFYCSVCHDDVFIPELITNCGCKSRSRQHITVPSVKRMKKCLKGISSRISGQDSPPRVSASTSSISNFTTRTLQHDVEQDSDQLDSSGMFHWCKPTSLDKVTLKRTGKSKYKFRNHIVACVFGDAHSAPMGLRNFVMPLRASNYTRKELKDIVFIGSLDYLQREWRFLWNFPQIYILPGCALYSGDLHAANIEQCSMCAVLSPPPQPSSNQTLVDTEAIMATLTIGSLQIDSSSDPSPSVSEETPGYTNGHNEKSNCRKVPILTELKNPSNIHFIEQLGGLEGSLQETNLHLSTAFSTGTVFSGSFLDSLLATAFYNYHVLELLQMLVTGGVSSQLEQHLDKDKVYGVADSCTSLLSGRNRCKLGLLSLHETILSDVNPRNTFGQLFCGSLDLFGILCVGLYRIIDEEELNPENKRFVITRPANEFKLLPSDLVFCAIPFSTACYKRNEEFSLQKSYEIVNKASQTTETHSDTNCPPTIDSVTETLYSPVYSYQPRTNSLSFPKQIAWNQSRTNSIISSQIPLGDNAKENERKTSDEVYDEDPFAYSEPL
T1 sequence (Q8N7C0 24-313 partner): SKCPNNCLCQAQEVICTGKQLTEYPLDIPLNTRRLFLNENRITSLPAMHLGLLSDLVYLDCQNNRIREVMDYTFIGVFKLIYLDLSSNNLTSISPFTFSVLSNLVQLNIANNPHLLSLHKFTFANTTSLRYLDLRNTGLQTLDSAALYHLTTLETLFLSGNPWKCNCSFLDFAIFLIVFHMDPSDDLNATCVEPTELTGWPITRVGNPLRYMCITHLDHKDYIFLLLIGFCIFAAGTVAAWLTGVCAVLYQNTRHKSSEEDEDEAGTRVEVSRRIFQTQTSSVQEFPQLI
Put plainly: whole-cell patch clamp, HEK293 cells, […] single dose. To be noted: HEK293, read-out: % inhibition at 50 μM. Format: cell-based.

In assay [2] the target is T1, Slo3 (potassium channel subfamily U member 1, KCNU1). Put plainly: whole-cell patch clamp, HEK293 cells, dose response. Type of assay: cell-based. Background: In patch-clamp work, channel activity is measured electrically.

The record followed here is publication PMC6717788 (The Korean Journal of Physiology & Pharmacology : …, 2019).

What is called inhibition is the share of the control response that was lost under treatment. As to `O=c1cc(-c2ccc(O)c(O)c2)oc2cc(O)cc(O)c12` [luteolin], the inhibition at 50 µM in assay [1] is 53.5 ± 3.15%.

On to `O=c1c(O)c(-c2ccc(O)cc2O)oc2cc(O)cc(O)c12` [morin], for which the inhibition at 50 µM in assay [1] stood at 42.1 ± 2.16%.

In general, EC50 refers to the concentration needed to bring the measured effect to its halfway point. A high value points to lower potency in that assay. For the molecule `O=c1c(O)c(-c2ccc(O)c(O)c2)oc2cc(O)cc(O)c12` [quercetin], a half-maximal response in assay [2] (EC50) required 11.3 µM.
